The numbers were not newly measured in US7332520B2, “Fused indoles as dipeptidyl peptidase inhibitors for the treatment or prevention of diabetes” (Merck & Co., Inc., priority 2003, dated 2008), which cites them from elsewhere.

Series [1] concerns the target T1, DP-IV (Homo sapiens, UniProt P27487).
T1 construct: GRF is rapidly degraded in plasma to GRF[3-44]

Series [2] has as its system hematopoiesis. The conditions noted are these: mouse, cyclophosphamide-induced neutropenia.

Each structure is given as a SMILES string.

T1 sequence (P27487 39-766 limits assumed): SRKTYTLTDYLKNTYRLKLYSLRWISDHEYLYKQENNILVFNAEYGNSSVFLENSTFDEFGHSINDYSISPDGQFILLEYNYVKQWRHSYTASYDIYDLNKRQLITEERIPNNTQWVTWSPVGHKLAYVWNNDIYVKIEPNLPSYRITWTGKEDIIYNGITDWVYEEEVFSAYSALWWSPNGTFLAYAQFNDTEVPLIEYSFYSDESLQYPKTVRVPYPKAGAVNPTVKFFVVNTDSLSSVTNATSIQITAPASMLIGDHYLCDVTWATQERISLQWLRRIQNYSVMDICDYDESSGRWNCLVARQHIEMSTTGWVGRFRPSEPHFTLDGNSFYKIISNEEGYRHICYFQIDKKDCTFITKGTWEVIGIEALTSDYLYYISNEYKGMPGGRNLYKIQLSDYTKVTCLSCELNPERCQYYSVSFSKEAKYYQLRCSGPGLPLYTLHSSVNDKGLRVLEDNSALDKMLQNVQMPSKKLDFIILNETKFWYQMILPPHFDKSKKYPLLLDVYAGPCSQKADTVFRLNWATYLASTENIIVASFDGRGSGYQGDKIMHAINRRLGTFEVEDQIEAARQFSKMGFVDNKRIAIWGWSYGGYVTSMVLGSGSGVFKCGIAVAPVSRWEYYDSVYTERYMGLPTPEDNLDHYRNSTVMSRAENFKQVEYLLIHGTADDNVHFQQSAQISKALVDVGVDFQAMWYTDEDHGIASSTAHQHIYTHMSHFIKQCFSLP

Regarding `CC[C@H](C)[C@H](N)C(=O)N1CCC[C@H]1C(=O)N[C@H](C(=O)O)[C@@H](C)CC` [diprotin A], the “degradation of GRF in plasma to GRF[3-44]” value in series [1] is reported as “prevented”.

Take `CC(C)[C@H](N)C(=O)N1CCC[C@H]1B(O)O` [Val-Boro-Pro]: in series [2], the hematopoiesis result is “stimulated hematopoiesis”.
